{"source": "patent US11857532B2", "about": "“Treatment and prediction of therapeutic responses in patients suffering from Friedreich ataxia” (INSERM (Institut National de la Santé et de la Recherche …, priority 2018, dated 2024)", "type_in_all_cases": "cell-based, human", "key": {"TfR1 [1]": {"test_system": "TfR1", "assay": "TfR1 palmitoylation assay in cultured skin fibroblasts", "experimental": "(§1) Skin fibroblasts were grown in Dulbecco's Modified Eagle Medium (DMEM, Life technologies) medium supplemented with 10% fetal bovine serum (FBS), 2 mM L-glutamine, 2.5 mM pyruvate, 100 μg/ml streptomycin, 100 U/ml penicillin at 37° C. For treatment with ferric ammonium citrate (FAC), 80% confluent cells were incubated for 72 h with or without 100 μM FAC in serum-free DMEM (i.e. Tf free). For drug treatment, 80% confluent cells were incubated in DMEM+10% FBS supplemented with 25 μM artesunate (Sigma) in DMSO for 48 h, 25 μM CoA (Sigma) for 72 h and 5 mM DCA (Sigma) for 72 h.\nTfR1 palmitoylation in cultured skin fibroblasts was modified from (Ba et al., 2012). Briefly, cells were lysed on ice in a DTT-free cell lysis buffer and endogenous TfR1 was immunoprecipitated overnight with mouse anti-TfR1 antibody (Life Technologies, 136890) with protein G magnetic beads (BioRad). After washing with PBS, beads were successively incubated 2 h with 50 mM N-ethylmaleimide (NEM) at room temperature, 1 M hydroxylamine and 50 mM HPDP-Biotin (Thermo) in dark for 2 hours. Samples were run in 12% acrylamide gel and biotin-labeled TfR1 level was determined by immunoblotting in non-reducing conditions using Chemidoc technology thanks to a CCD camera (BioRad) and ImageLab software v3.0 (BioRad)."}, "TfR1 [2]": {"test_system": "TfR1", "assay": "Western blot of TfR1 steady-state level in fibroblasts", "details": "for steady state level of TfR1: CoA 25 μM 72 h, DCA 5 mM 72 h, artesunate 25 μM 48 h", "experimental": "as §1\n(§2) Cultured skin fibroblasts were harvested on ice by scraping in reducing (2 μM dithiothreitol, DTT, denaturation at 95° C. for 5 min) or non-reducing cell lysis buffer (no DTT, no heat denaturation). Western bot analysis was performed on 20 μg of whole-cell protein extracts or mitochondrial-enriched fractions in 12% acrylamide gel or 4-15% gel gradient. Immunodetections were performed in PBS with 5% or 1% milk, 0.05% Tween20 (SIGMA) using the following antibodies: rabbit anti-SOD1 (Abcam, ab16831), rabbit anti-SOD2 (Abcam, ab13533), mouse anti-TfR1 (Invitrogen, 13-6800), rabbit anti-TfR1 (Abcam, 108985), rabbit anti-ferritin (Abcam, ab75973), rabbit anti-IRP1 (Abcam, ab126595), rabbit anti-IRP2 (Abcam, ab80339), rabbit anti-FBXL5 (Abcam, ab140175), rabbit anti-FDXR (Abcam, 204310), rabbit anti-FXN (Protein tech, 14147-1-AP), rabbit anti-PDH E2 subunit (Abcam, ab172617), rabbit anti-lipoic acid (Abcam, ab58724), goat anti-Biotin (Thermo, 31852), mouse anti-VDAC/Porine (Abcam, ab14734)\n(§3) mouse anti-ATP5a (Abcam, ab14748), mouse anti-Vinculin (abeam, ab130007), rabbit anti-TFAM (Proteintech, 19998-1-AP), rabbit ATP8 (Proteintech, 26723-1-AP) and mouse anti-GAPDH antibodies (ab8245). Blots were incubated with fluorescent secondary antibodies (IRDye 800CW/680LT Goat anti-rabbit or anti-mouse IgG (LI-COR)) or HRP-conjugated secondary antibodies (goat anti-rabbit IgG HRP (Abcam), goat anti-mouse IgG HRP (Abcam) or donkey anti-goat IgG HRP (Santa Cruz)) before ECL-based detection (SuperSignal West Dura, Thermo Scientific). Signals captured either with the Odyssey Infrared Imaging System using Image Studio Lite v5.2 (LI-COR Biosciences) or with CDD camera using Image Lab v3.0 (BioRad)."}, "membrane-bound TfR1": {"test_system": "membrane-bound TfR1", "assay": "Imaging flow cytometry (Imagestream) of membrane-bound TfR1 in fibroblasts", "experimental": "as §1\nFibroblasts were starved for one hour in FBS-free DMEM medium (i.e. Tf-free), treated with 5 mM EDTA for harvesting them without disrupting TfR1 located at cell surface, as trypsin does, and then labelled with anti-TfR1 antibody at 4° C. to avoid TfR1 internalization. In this condition only membrane-bound TfR1 is quantified. Cell sorting was based on Hoechst-positive signal, allowing to select living cells.\n(§4) Total iron contents were measured using a ferrozine-based iron assay modified from (Barbeito et al., 2010). For imaging flow cytometry, fibroblasts were starved for one hour in FBS-free DMEM medium, treated with 5 mM EDTA for harvesting them without disrupting TfR1 located at cell surface, as trypsin does, washed 3 times with cold PBS and then labelled with anti-TfR1 antibodies (A24) (Moura et al., 2004) for 1 h on ice to avoid TfR1 internalization. In this condition, only membrane-bound TfR1 is quantified. Secondary staining was performed using Alexa fluor 488 goat anti-mouse antibody (Life technology) for 30 min on ice. Cells were washed and stained with Hoechst for 5 min in a total volume of 50 μl and acquisitions were directly performed. Cell analysis was based on Hoechst-positive signal, allowing to select living cells. […] Data were acquired using the INSPIRE software (Amnis Corp) and analyzed using the IDEAS™ software (version 6.2 Amnis Corp) on at least 20,000 events. […] Results were expressed as mean pixel intensity value which is the intensity normalized to surface area."}, "[3]": {"test_system": "fibroblasts (cellular iron content)", "assay": "Ferrozine-based iron quantification in fibroblasts", "details": "for iron content: control cells", "experimental": "as §1\nTotal iron contents were measured using a ferrozine-based iron assay modified from (Barbeito et al., 2010). For imaging flow cytometry, fibroblasts were starved for one hour in FBS-free DMEM medium, treated with 5 mM EDTA for harvesting them without disrupting TfR1 located at cell surface, as trypsin does, washed 3 times with cold PBS and then labelled with anti-TfR1 antibodies (A24) (Moura et al., 2004) for 1 h on ice to avoid TfR1 internalization. In this condition, only membrane-bound TfR1 is quantified. Secondary staining was performed using Alexa fluor 488 goat anti-mouse antibody (Life technology) for 30 min on ice. Cells were washed and stained with Hoechst for 5 min in a total volume of 50 μl and acquisitions were directly performed. Cell analysis was based on Hoechst-positive signal, allowing to select living cells. Samples were run on an Imagestream ISX mkII (Amnis Corp, Millipore, Seattle, WA) that combines flow cytometry with detailed cell-imaging and functional studies and a 40× magnification was used for all acquisitions. Data were acquired using the INSPIRE software (Amnis Corp) and analyzed using the IDEAS™ software (version 6.2 Amnis Corp) on at least 20,000 events. Spectral compensation was performed using singly stained samples. A specific mask was designed for analysis of the membrane localization of TfR1. This mask was the result of a full bright field mask minus a 5 pixels erode and 1 pixel dilate bright mask resulting in doughnuts-like mask. Results were expressed as mean pixel intensity value which is the intensity normalized to surface area."}, "[4]": {"test_system": "ferritin, FBXL5, SOD2, IRP1-2", "assay": "Western blot of proteins involved in iron homeostasis and antioxidant defense in fibroblasts", "details": "artesunate 25 μM for 48 h", "experimental": "as §1, §2, §3"}, "[5]": {"test_system": "fibroblasts (Tf recycling)", "assay": "Transferrin (Tf) recycling by spinning-disk confocal microscopy in fibroblasts", "experimental": "as §1\nFor Tf recycling, fibroblasts were spread at 30% confluence onto micro-slides glass bottom (IBIDI) 24 h before experiment. Cells were then starved in FBS-free DMEM media for 1 h before add Tf-RED (12.5 μg/mL) for 30 min at 37° C. Cells were washed with PBS and then incubated for in regular media for live-imaging acquisition using spinning disk confocal microscopy (ZEISS Microscopy). Slides were placed un incubation chamber at 37° C. under 5% CO2. At least 20 cells were acquired by condition using 63× oil immersion objective lens with a picture of cell/min during 40 min using Zen software. The nuclear region (NR) was defined using Icy software v1.9. […] PNROI masks were then applied on RED channel by spot detector plugin to obtain quantitative mean fluorescence particle intensity. […]"}, "PBMC (iron content)": {"test_system": "PBMC (iron content)", "assay": "Ferrozine-based iron quantification in PBMC grown in high iron medium", "details": "40 h in high iron medium (100 μM FAC), artesunate 25 μM", "experimental": "PBMC were isolated from 8 ml blood samples by density centrifugation using Ficoll (GE Healthcare) and grown 2 h in regular DMEM before treatment with 100 μM FAC for different time.\nas §4"}, "[6]": {"details": "FRDA fibroblasts, artesunate 25 μM for 48 h"}, "[7]": {"details": "control cells, artesunate 25 μM for 48 h"}}}
{"smiles": "CC(C)(COP(=O)(O)OP(=O)(O)OC[C@H]1O[C@@H](n2cnc3c(N)ncnc32)[C@H](O)[C@@H]1OP(=O)(O)O)[C@@H](O)C(=O)NCCC(=O)NCCS", "note": "[CoA, [[(2R,3S,4R,5R)-5-(6-aminopurin-9-yl)-4-hydroxy-3-phosphonooxyoxolan-2-yl]methoxy-hydroxyphosphoryl][(3R)-3-hydroxy-2,2-dimethyl-4-oxo-4-[[3-oxo-3-(2-sulfanylethylamino)propyl]amino]butyl]hydrogen phosphate]", "values": [{"measurement": "increase of TfR1 palmitoylation", "setting": "TfR1 [1]; FRDA fibroblasts, CoA 25 μM for 72 h", "value": "2.1 to 3.2", "unit": "fold"}, {"measurement": "steady state level of TfR1", "setting": "TfR1 [2]; FRDA fibroblasts", "value": "decreased"}, {"measurement": "membrane TfR1 accumulation", "setting": "membrane-bound TfR1; summary statement in discussion, conditions not given", "value": "reduced"}, {"measurement": "decrease of cellular iron content", "setting": "[3]; FRDA fibroblasts, high iron conditions (+FAC), CoA 25 μM for 72 h", "value": "1.6-2.4 fold"}]}
{"smiles": "C[C@H]1[C@H](OC(=O)CCC(=O)O)O[C@@H]2O[C@@]3(C)CC[C@H]4[C@H](C)CC[C@@H]1[C@@]24OO3", "note": "[artesunate, (3R,5aS,6R,8aS,9R,10S,12R,12aR)-Decahydro-3,6,9-trimetyl-3,12-epoxy-12H-pyrano[4,3-j]-1,2-benzodioxepin-10-ol, hydrogen succinate]", "values": [{"measurement": "TfR1 palmitoylation relative to controls", "setting": "TfR1 [1]; [6]", "value": "80 % of controls"}, {"measurement": "TfR1 palmitoylation", "setting": "TfR1 [1]; control cells, artesunate treatment", "value": "slight but non-significant decrease"}, {"measurement": "TfR1 steady-state level relative to control values in artesunate-free medium", "setting": "TfR1 [2]; FRDA fibroblasts, regular DMEM, artesunate 25 μM for 48 h", "value": "136 % of control values"}, {"measurement": "steady state level of TfR1", "setting": "TfR1 [2]; FRDA fibroblasts", "value": "significantly decreased"}, {"measurement": "TfR1 steady-state level", "setting": "TfR1 [2]; [7]", "value": "slight increase"}, {"measurement": "FBXL5 steady state level", "setting": "[4]; FRDA fibroblasts", "value": "returned to control values"}, {"measurement": "IRP1-2 steady state levels", "setting": "[4]; FRDA fibroblasts", "value": "not modified"}, {"measurement": "SOD2 steady state level", "setting": "[4]; FRDA fibroblasts", "value": "decreased"}, {"measurement": "ferritin steady state level", "setting": "[4]; FRDA fibroblasts", "value": "returned to control values"}, {"measurement": "FBXL5 steady state level", "setting": "[4]; control cells", "value": "not modified"}, {"measurement": "ferritin steady state level", "setting": "[4]; control cells", "value": "not modified"}, {"measurement": "decrease of membrane TfR1", "setting": "membrane-bound TfR1; [6]", "value": "15-30%"}, {"measurement": "increase of membrane TfR1", "setting": "membrane-bound TfR1; [7]", "value": "1.1 to 1.3", "unit": "fold"}, {"measurement": "Tf recycling (Tf-Alexa555 signal)", "setting": "[5]; [6]", "value": "complete rescue"}, {"measurement": "Tf recycling", "setting": "[5]; control cells treated with artesunate", "value": "slight delay"}, {"measurement": "cellular iron content relative to initial cellular iron content", "setting": "[3]; FRDA fibroblasts, basal conditions, artesunate 25 μM for 48 h", "value": "62-79 % of initial cellular iron content"}, {"measurement": "decrease of cellular iron content", "setting": "[3]; FRDA fibroblasts, high iron condition (100 μM FAC), 25 μM artesunate for 48 h", "value": "71-79%"}, {"measurement": "iron content", "setting": "[3]; basal conditions, artesunate 25 μM for 48 h", "value": "light but non-significant increase"}, {"measurement": "iron content", "setting": "[3]; high iron conditions (100 μM FAC), 25 μM artesunate", "value": "decreased"}, {"measurement": "iron content of PBMC", "setting": "PBMC (iron content); FRDA PBMCs", "value": "two-fold decrease"}, {"measurement": "iron content of PBMC", "setting": "PBMC (iron content); control PBMCs", "value": "two-fold decrease"}]}
